Measured values: a melting point compilation (Tetko et al.; mined from patent text by program, amines drawn as free bases though some values may be those of a salt)

| melting point [°C] | Structure (SMILES) |
| --- | --- |
| 114 to 115 | CS(=O)(=O)c1ccc(C2=C(c3ccc(F)c(F)c3)CCC2)cc1 |
| 245 to 246 | COc1c(C#N)c2cc(Cl)c(Cl)cc2n1C1OC(CO)C(O)C1O (stereo not given) |
| 202 to 207 | COC(=O)c1ccc(N=Cc2ccc(Cl)c(Cl)c2)cn1 |
| 258 to 260 | O=S1(=O)c2ccc(O)cc2Oc2cc(F)ccc21 |
| 129 | ClCc1c(Cl)ccc2cc(Cl)cnc12 |
| > 260 | O=S(=O)(O)c1ccc2c(c1)CNC(C(Cl)(Cl)Cl)O2 (stereo not given) |
| 60 to 62 | O=C(CCCCCOc1ccc([N+](=O)[O-])cc1)OCCOCCOC(=O)CCCCCOc1ccc([N+](=O)[O-])cc1 |
| 155 to 157 | COc1cc(CNC(=O)c2nc3cnn(CCCc4ccccc4)c3c(=O)[nH]2)ccc1F |
| 295 to 299 | CCOC(=O)c1ncc2[nH]c3c([N+](=O)[O-])cc([N+](=O)[O-])cc3c2n1 |
| 139 to 141 | C/C(=C\C=C(c1ccccc1)c1ccccc1)C(=O)Oc1ccc([N+](=O)[O-])cc1 |
| 259 to 261 | N#Cc1cnc2c(oc3ccccc32)c1Nc1ccc(Cl)cc1F |
| 91 to 92 | CCOC(=O)CCCCC(=O)OCC1=C(C(=O)OCC)C(c2ccccc2Cl)C(C(=O)OCC)=C(C)N1 (stereo not given) |
| 31 to 32 | COC(=O)c1cccn1Cc1ccccc1 |
| 170 to 174 | O=C(O)c1conc1-c1ccc(F)cc1 |
| 131 to 132 | CCOC(=O)C(C#N)=Cc1c(Cl)n(C)c2ccccc12 |
| 95 to 96 | CCOC(=O)C(CC(=O)c1ccc(Oc2ccccc2)cc1)SC(=O)c1ccccc1 (stereo not given) |
| 190 to 192 | Cc1cc(C)nc(NC(=O)NS(=O)(=O)c2ccsc2C2=CC(=O)CCC2)n1 |
| 69 to 70 | CC1(C)CCC2(Cc3ccc(Cl)cc3)OC2C1=O (stereo not given) |
| 203 to 204 | CC(C)(Cc1c2c(nn1CCO)c(N)nc1ccccc12)NS(C)(=O)=O |
| 216 to 218 | CN1CCN(c2cccc(Nc3nc4c(-c5cnn(-c6ccc(F)cc6)c5)cccn4n3)c2)CC1 |
| 128 to 130 | CC(C)n1c(C(=O)O)c(-c2ccc(F)cc2)c2ccccc2c1=O |
| 135 to 137 | C/C(=C\c1ccc(C(C)(C)C)cc1)CNc1cccc(-c2ccnc3c(C(=O)c4cccs4)cnn23)c1 |
| 290 to 295 | Cc1[nH]cnc1/C=C1\CCc2c(c3ccc(F)cc3n2C)C1=O |
| 128 | COC(=O)C1(NC(=O)Cc2cc(-c3ccc(Cl)cc3)ccc2Cl)CCC(C)(C)CC1 |
| 209 to 210 | O=C1Cc2cccc(C(=O)c3ccccc3F)c2N1 |
| 170 to 172 | Cc1cccc(NC(=O)C(=O)OCC#CI)c1 |
| 105 to 107 | N#Cc1cc(Cl)ccc1NC(=O)C(F)(F)F |
| 183 to 185 | CC1(C)CCN(C(=O)Nc2cccnc2)c2cc(C#N)ccc21 |
| 213 to 215 | O=C1CCC(N2Cc3c(OCc4cccc(CN5CCn6nc(C(F)(F)F)nc6C5)c4)cccc3C2=O)C(=O)N1 (stereo not given) |
| 141 to 143 | Cc1ccc(C(=O)C(=C2NCCCS2)[N+](=O)[O-])cc1 |

Further lines, the molecule ahead of its results:

| Structure (SMILES) | melting point [°C] |
| --- | --- |
| Cc1nc(-n2ccn(Cc3ccc(C(F)(F)F)cc3)c2=O)sc1C(=O)NCc1cccnc1 | 163 to 164 |
| Cn1nc(-c2c(F)cccc2Cl)nc1-c1cc(-c2ccc(OC(F)(F)F)cc2)sc1Br | 135 to 136 |
| CCOC(=O)c1ccc(NC(=O)C=C(C)c2ccc(Cl)cc2)cc1 | 150 to 152 |
| Fc1ccc(-c2[nH]nc(C3=C[C@@H]4C[C@@H](c5ccccc5)CN4CC3)c2-c2ccncc2)cc1Cl | 179 to 180 |
| C=Cc1nc(Cl)nc(Cl)c1OC | 60 to 61 |
| Cc1c(C)c2c(c(C)c1Br)C(c1ccc(-c3ccccc3)cc1)CO2 (stereo not given) | 153 to 154 |
| CC(C)(C)OC(=O)c1ncn2c1C1CCCN1C(=O)c1ncccc1-2 (stereo not given) | 230 to 231 |
| CCOCCn1c(N2CCN(CC)CC2)nc2ccccc21 | 134 to 136 |
| CC(=O)C(=CC(=O)O)c1ccccc1 | 70 |
| CCOC(=O)c1cn(CC)c2c(F)c(C(C)=O)c(F)cc2c1=O | 129 to 130 |
| O=C(O)CN1C(=O)[C@@H](NC(CCc2ccccc2)C(=O)O)CSC1c1ccccc1 (stereo not given in full) | 132 to 138 |
| O=C1Cc2ccccc2Sc2cc(F)c(F)cc21 | 110 to 112 |
| CSc1ccc(C2=NC[C@@H](O)[C@H](c3ccccc3)O2)cc1 (racemic) | 130 |
| CCn1nc(-c2ncc(NCc3ccc(OC)cc3)nc2-c2ccccc2)ccc1=O | 148 to 150 |
| CCOC(=O)CON1C(=O)C(=O)N(c2ccccc2SC)C1=S | 112 to 114 |
| COC(=O)c1ccccc1NC(=O)Cc1ccccc1OC | 116 to 117 |
| COCCCn1nnnc1-c1cc(-c2cc(C(C)C)ccc2OC)c(O)cc1O | 174 to 176 |
| O=C1CCc2cc(OCc3ccccc3)c(O)c([N+](=O)[O-])c21 | 252 to 254 |
| CC(C)(C)c1nc(O)cc(OC(F)F)n1 | 156 |
| N#CC1(Nc2ccccc2)CCN(C2CCC(c3ccc(F)cc3)(c3ccc(F)cc3)CC2)CC1 | 139 to 140 |

| Structure (SMILES) | melting point [°C] |
| --- | --- |
| CN1c2cc(Cl)ccc2-c2nc3ccc(Cl)cc3c3cccc1c23 | 273 to 275 |
| COc1ccc(CNc2cc3c(Nc4ccc(Br)c(Br)c4)ncnc3cn2)cc1 | 166 to 169 |
| CN1CCCCc2cc(Nc3ncc(Cl)c(N[C@@H]4CCCC[C@H]4NS(C)(=O)=O)n3)ccc21 | 102 to 104 |
| Cc1c(-c2ccccc2)oc2c(C(=O)OCCN3CCOCC3)cc(Cl)cc2c1=O | 68 to 73 |
| OC1CC(NCc2ccccc2)c2ccccc21 (stereo not given) | 125 to 127 |
| O=C1NC(=O)C(=Cc2ccc(C(=O)CCc3ccccc3)cn2)S1 | > 250 |
| CCCSc1ncc(CC(NC(=O)C2CCCC2)C(=O)O)n1Cc1ccccc1Cl (stereo not given) | 173 to 175 |
| CC1(C)C(=O)N(CCN2CCc3c([nH]c4ccccc34)C2)c2ccccc21 | 156 to 158 |
| CC(NC(=O)NO)c1ccc2cc(OCc3csc(-c4ccccc4)n3)ccc2c1 (single isomer, unassigned; (-)) | 171 to 173 |
| CC(C)C(S)C(=O)NC1(C(=O)NC(Cc2ccc(-c3ccccc3)cc2)C(=O)O)CCOCC1 (stereo not given) | 161 to 163 |
| CN(C)C(=N[N+](=O)[O-])N(Cc1cnc(Cl)s1)S(C)(=O)=O | 82 to 86 |
| Cc1cccc(Cl)c1NC(=O)N=C1NCCN1 | 169 to 171 |
| Cc1noc(C)c1C(=O)Nc1ccc(-n2nc(C(F)(F)F)cc2C2CC2)cc1 | 170 to 172 |
| COC(=O)CCCCCCCNC(=O)C(CSC(C)=O)Cc1ccccc1 (stereo not given) | 44 to 45 |
| CCCc1ccc(S(=O)(=O)Nc2ccc3ncccc3c2)cc1 | 180 to 181 |
| Cc1ccccc1C(=O)Nc1ccc(C(=O)N2CCCC(=O)c3cc(Cl)ccc32)c(C)c1 | 134 to 142 |
| COC(=O)c1ccc(C(C(N)=O)C(C)c2cc(Cl)ccc2N2CCCC2)cc1 (stereo not given) | 133 to 135 |
| Cc1cc(-c2nc3ccccc3c(=O)n2-c2ccc(F)cc2)cc(C)c1OCCO | 95 to 97 |
| O=C(Cc1ccccc1Nc1c(Cl)cccc1Cl)OCCl | 89 to 91 |
| COc1nc(C(F)(F)F)cc(=O)n1-c1cc(O)c(Cl)cc1F | 147 to 149 |
